Reference: patent US20240165096A1, “Anti Viral Therapy” (priority 2021, published 2024)
Structures can show the parent of a compound that is named as a salt. Where two headings read alike, the source gives them in different places.

Experiments:
Calu3 cells = tested on: Calu3 cells
Method: (§1) Compounds were acoustically transferred into black 384 well optical bottom plates (Nunc-UK). Calu-3 and Vero cells were maintained as described for the infection assay and seeded in the assay-ready plates at a density of 3×10^3 cells/well for Vero cells, and 9×10^3 cells/well for Calu-3 cells. Plates were incubated for 72 h at 37° C. and 5% CO2. To assess cell toxicity, CellTox™ Green Cytotoxicity Assay (Promega-UK) was undertaken following the manufacturer's instructions. Plates were incubated for 15 min prior to recording fluorescence (480/520 nm) using a […] (CLARIOstar Plus; BMG LABTECH, UK).

Vero cells = tested on: Vero cells
Method: as §1

SARS-COV-2 [1] = assay: microbe, parasite or virus in culture; type: cell-based; conditions: for decrease in the amount of virus released from infected Calu3 cells: pretreatment 24 h, PHE strain MOI 0.1, plaque assay; for IC50: Severe acute respiratory syndrome coronavirus 2, Calu-3, drug alone, infected Calu3 cells, pre-treated 24 hours prior to infection, 6 concentrations
SARS-COV-2 NSP12 RNA = assay: RT-qPCR of viral NSP12 RNA in infected Calu3 cells; type: cell-based
SARS-COV-2 [2] = type: cell-based
SARS-COV-2 [3] = assay: microbe, parasite or virus in culture; conditions: Severe acute respiratory syndrome coronavirus 2, Calu-3, in Homo sapiens, read-out: protection from infection of SARS-COV-2 (percent inhibition of CPE)
SARS-COV-2 [4] = conditions: 5 μM, Calu3 and Vero cells, MOI 0.1, CPE 3 days post infection

**Q.** `CN1CCC(=C2c3ccccc3CCc3cccnc32)CC1` [Azatadine] was tested. Which “cytotoxicity on Calu3 cells” value (Calu3 cells) did it give?
**A.** Its value is “not cytotoxic”.

**Q.** What about the “cytotoxicity on Vero cells” value (Vero cells) of the same compound?
**A.** Its value is “not cytotoxic”.

**Q.** What about the “decrease in the amount of virus released from infected Calu3 cells” value (SARS-COV-2 [1]; 5 μM) of the same compound?
**A.** Its value is roughly 100 fold.

**Q.** What about the “decrease in the amount of virus released from infected Calu3 cells” value (SARS-COV-2 [1]; 25 μM) of the same compound?
**A.** Its value is roughly 5000 fold.

**Q.** And the IC50 (SARS-COV-2 [1])?
**A.** Its IC50 is roughly 4900 nM.

**Q.** What about the “levels of mature infectious viral particles released from infected cells” value (SARS-COV-2 [1]; both concentrations (5 and 25 μM), plaque assay) of the same compound?
**A.** The value was “substantially reduced”.

**Q.** And the “reduction of viral NSP12 RNA levels” value (SARS-COV-2 NSP12 RNA; 5 μM, infected Calu3 cells)?
**A.** The value was roughly 50%.

**Q.** What about the “levels of viral NSP12 RNA” value (SARS-COV-2 NSP12 RNA; both concentrations (5 and 25 μM), RT-qPCR) of the same compound?
**A.** The value was “substantially reduced”.

**Q.** And the “reduction of virus growth kinetics” value (SARS-COV-2 [2])?
**A.** The value was 10^2 PFU/mL.

**Q.** And the “SARS-COV-2 titres following treatment” value (SARS-COV-2 [2]; donor #311, 25 μM)?
**A.** Its value is “no difference”.

**Q.** What about the “IFNλ release and/or activity (expression)” value (shortened to “IFNλ release and/or activity”) (IFNλ) of the same compound?
**A.** Its value is “enhanced the release and/or activity of IFNλ”.

**Q.** What about the SARS-COV-2-mediated cytotoxicity (IFNλ) of the same compound?
**A.** Its SARS-COV-2-mediated cytotoxicity is “robustly inhibited”.

**Q.** And the “rank among interferon-enhancing drugs” value (IFNλ)?
**A.** The value was “top 1%”.

**Q.** What about the “IFNλ release and/or activity” value (IFNλ; listed as Azatadine maleate) of the same compound?
**A.** Its value is “increase IFN-λ expression”.

**Q.** And the inhibition at 5 µM (SARS-COV-2 [3])?
**A.** The inhibition at 5 µM was no less than 90%.

**Q.** `CN1CCC(=C2c3ccccc3C=Cc3ccccc32)CC1` [Cyproheptadine] was tested. Which “antiviral effects in the screens” value (SARS-COV-2 [4]) did it give?
**A.** The value was “did not show any antiviral effects”.

**Q.** Which “IFNλ release and/or activity” value (IFNλ) does the source give for `O=C(O)COCCN1CCN([C@H](c2ccccc2)c2ccc(Cl)cc2)CC1` [Levocetirizine Dihydrochloride] here?
**A.** The value was “enhanced IFNλ release and/or activity”.

**Q.** And the SARS-COV-2-mediated cytotoxicity (IFNλ)?
**A.** Its SARS-COV-2-mediated cytotoxicity is “failed to inhibit cytotoxicity”.

**Q.** Which results are given for `CCC(CC)COC(=O)[C@H](C)N[P@](=O)(OC[C@H]1O[C@@](C#N)(c2ccc3c(N)ncnn23)[C@H](O)[C@@H]1O)Oc1ccccc1` [Remdesivir]?
**A.** decrease in the amount of virus released from infected Calu3 cells (SARS-COV-2 [1]; 1 μM): ~5000 fold; IC50 (SARS-COV-2 [1]): ~190 nM; reduction of virus growth kinetics (SARS-COV-2 [2]): 10^3 PFU/mL; reduction in viral titres relative to the DMSO control (SARS-COV-2 [2]; donor #311, 1 μM): 1.47 log10
